≈ marks a conversion by molar mass, not a printed value. Read-outs that look alike come from different tables or passages of the source.
Experiments:
Type in all cases: cell-based, human
KBv200 cells = assay: Sensitizing effect of PA to conventional chemotherapeutic drugs (MTT); conditions: KBv200, drug alone, 68 h; for IC50: Homo sapiens, read-out: IC50 of anti-tumor drug, Ctrl (without PA)
Protocol: (§1) The cells at logarithmic phase were collected and added into RPMI 1640 medium (containing 10% fetal bovine serum) to make cell suspensions. The cell suspension was added to 96-well plate at 100 μl per well, and the cell number was 2×10^3 (suspending cells) or 1×10^3 (adherent cells) per well. After inoculation, the suspending cells were adapted for half an hour on the plate and the adherent cells were cultivated to allow adhesion before the drugs were added. The control groups (Ctrl) were added with anti-tumor drugs but without PA. The drug concentration of each PA group was 10 μg/mL. The concentrations of chemotherapeutic drugs increased from 0.001 μg/mL to 20 μg/mL. There Were six parallel repeated wells for every concentration gradient. RPMI 1640 was added up to a finally volume of 200 μl per well. The cells were cultured at the condition of 37° C., saturated humidity, 5% CO2 for 68 hours. The MTT was determined and the IC50 was calculated as in example 4.
(§2) The formula of resistant factor: Resistant Factor (RF)=the IC50 without sensitizer/the IC50 with sensitizer.

K562/Adr cells = assay: as above; conditions: drug alone, 68 h; for IC50: Homo sapiens, read-out: IC50 of anti-tumor drug, Ctrl (without PA)
Protocol: as §1, §2

MCF-7/Adr cells = assay: as above; conditions: drug alone, 68 h; for IC50: Homo sapiens, NCI/ADR-RES, read-out: IC50 of anti-tumor drug, Ctrl (without PA)
Protocol: as §1, §2

KBv200 = assay: MTT drug resistance determination to conventional chemotherapeutic drugs; conditions: for RF (drug resistant factor): IC50 KBv200 / IC50 KB; for IC50: KBv200, drug alone, 68 h, MTT
From the text: (§3) The following cell lines were used: K562 (human chronic myeloid leukemia cell line) and K562/Adr (a cell line with drug-resistance to chemotherapeutic drugs such as Adriamycin induced by a long-term exposure to a low dosage of Adriamycin); KB (human oral epithelia cell line) and KBv200 (a cell line with drug-resistance to chemotherapeutic drugs such as Vincristine induced by a long-term exposure to a low dosage of Vincristine); MCF-7 (human mammary cancer cell line) and MCF-7/Adr (a cell line with drug-resistance to chemotherapeutic drugs such as Adriamycin induced by a long-term exposure to a low dosage of Adriamycin). All the cell lines mentioned above were purchased from Institute of Hematology, Chinese Academy of Medical Sciences.
The multi-drug resistant cell line, of KBv200 is also mainly characterized by the concurrency of multiple resistant mechanisms including the increased expression of P-gp and Bcl-2 family proteins, and the enhanced activity of glyoxalase I, etc. KBv200 is resistant to Vincristine more than 100 folds in comparison with KB, and cross-resistant to […], Daunomycin, Mitoxantrone, Taxol, etc.
(§4) Half-inhibitory concentration (IC50) was calculated by the GraphPad Prism software (San Diego, Calif.). Drug reaction was analyzed by Sigmoldal non-linear regression model.
(§5) The cells at logarithmic phase were collected and added into RPMI 1640 medium (containing 10% fetal bovine serum) to prepare a cell suspension. Then the cell suspension was plated onto a 96-well plate at 100 μl per well (1×10^4 cell/well). Adriamycin, Vincristine, Taxol, cisplatin of different concentration gradients were directly added to the semi-suspending cells (K562 and K562/Adr). The adherent cells were cultured for 24 hours after inoculation so that they could adhere completely, and then the drugs mentioned above in different concentrations were added. There were six parallel repeated wells for every concentration gradient. The medium was added up to a final volume of 200 μl per well. The cells were cultured at the condition of 37° C., saturated humidity, 5% CO2 for 68 hours. 50 μl MTT (2 mg/mL) per well was added. The 96-well plate was centrifuged and the supernatant was removed. Then 120 μl DMSO per well was added and vibrated by vibrator. The OD value was determined at a wavelength of 590 nm by enzyme labeling instrument after the crystal was dissolved completely.
(§6) The calculating method: IC50=drug concentration when the inhibitory rate was 50%.
(§7) Drug resistant factor (RF)=the IC50 of the drug resistant cells/the IC50 of the sensitive cells.

K562/Adr = assay: as above; conditions: for RF (drug resistant factor): IC50 K562/Adr / IC50 K562; for IC50: K562/Adr, drug alone, 68 h, MTT
From the text: as §3
The multi-drug resistant cell line of K562/Adr is mainly characterized by the concurrency of multiple resistant mechanisms including the increased expression of P-gp and Bcl-2 family proteins, and the enhanced activity of glyoxalase I, etc. K562/Adr is resistant to Adriamycin 20 folds more than K562, and cross-resistant to Vincristine, Daunomycin, Mitoxantrone, Taxol, etc.
as §4, §5, §6, §7

KB = assay: as above; conditions: drug alone, 68 h
From the text: as §3, §4, §5, §6, §7

MCF-7 = assay: as above; conditions: 68 h
From the text: as §3, §4, §5, §6, §7

K562 = assay: as above; conditions: K562, drug alone, 68 h
From the text: as §3, §4, §5, §6, §7

MCF-7/Adr = assay: as above; conditions: for RF (drug resistant factor): IC50 MCF-7/Adr / IC50 MCF-7; for IC50: MCF-7/Adr, drug alone, 68 h, MTT
From the text: as §3
Similarly, the multi-drug resistant cell line of MCF-7/Adr is also mainly characterized by the concurrency of multiple resistant mechanisms including the increased expression of P-gp and Bcl-2 family proteins, and the enhanced activity of glyoxalase I, etc.
as §4, §5, §6, §7

[1] = Homo sapiens, MCF7, MCF-7, drug alone, read-out: IC50
[2] = Homo sapiens, NCI/ADR-RES, read-out: IC50

| IC50 (K562/Adr; Homo sapiens, read-out: IC50) | IC50 (KB; Homo sapiens, read-out: IC50) | IC50 (MCF-7; [1]) | IC50 (K562; Homo sapiens, read-out: IC50) | IC50 (MCF-7/Adr; [2]) | SMILES | RF (drug resistant factor) (KBv200) | RF (drug resistant factor) (K562/Adr) | RF (drug resistant factor) (MCF-7/Adr) | IC50 (KBv200 cells) | IC50 (K562/Adr cells) | IC50 (MCF-7/Adr cells) | IC50 (KBv200; Homo sapiens, read-out: IC50) | other results |
| --- | --- | --- | --- | --- | --- | --- | --- | --- | --- | --- | --- | --- | --- |
|  |  |  |  |  | N.N.[Cl][Pt][Cl] [DDP, Cisplatin] | 14.13 | 4.727 | 11.38 |  |  |  |  | IC50 of anti-tumor drug, Ctrl (without PA) (KBv200 cells; in µg/mL): 5.868 ± 0.2438; IC50 of anti-tumor drug, Ctrl (without PA) (K562/Adr cells; in µg/mL): 5.311 ± 0.4429; IC50 of anti-tumor drug, Ctrl (without PA) (MCF-7/Adr cells; in µg/mL): 7.708 ± 1.077; IC50 (KBv200): 7.785 ± 0.6536 µg/mL; IC50 (K562/Adr): 1.075 ± 0.5646 µg/mL; IC50 (KB): 0.5509 ± 0.094 µg/mL; IC50 (MCF-7; MCF-7, drug alone): 0.6453 ± 0.1675 µg/mL; IC50 (K562): 0.2274 ± 0.078 µg/mL; IC50 (MCF-7/Adr): 7.342 ± 0.764 µg/mL |
| 0.932 ± 0.092 µg/mL (≈ 1.09 µM) | 0.032 ± 0.001 µg/mL (≈ 0.0375 µM) | 0.0415 ± 0.003 µg/mL (≈ 0.0486 µM) | 0.0247 ± 0.001 µg/mL (≈ 0.0289 µM) | 0.743 ± 0.21 µg/mL (≈ 0.87 µM) | CC(=O)O[C@H]1C(=O)[C@@]2(C)[C@H]([C@H](OC(=O)c3ccccc3)[C@]3(O)C[C@H](OC(=O)[C@H](O)[C@@H](NC(=O)c4ccccc4)c4ccccc4)C(C)=C1C3(C)C)[C@]1(OC(C)=O)CO[C@@H]1C[C@@H]2O [Taxol, paclitaxel] | 42.12 | 37.72 | 17.65 | 1.01 ± 0.0421 µg/mL | 0.8225 ± 0.0073 µg/mL | 0.906 ± 0.213 µg/mL | 1.348 ± 0.002 µg/mL (≈ 1.58 µM) |  |
| 12.2 ± 0.576 µg/mL (≈ 14.7 µM) | 0.153 ± 0.092 µg/mL (≈ 0.185 µM) | 0.096 ± 0.014 µg/mL (≈ 0.116 µM) | 0.218 ± 0.011 µg/mL (≈ 0.264 µM) | 18.6 ± 1.75 µg/mL (≈ 22.5 µM) | CC[C@]1(O)C[C@H]2CN(CCc3c([nH]c4ccccc34)[C@@](C(=O)OC)(c3cc4c(cc3OC)N(C=O)[C@H]3[C@@](O)(C(=O)OC)[C@H](OC(C)=O)[C@]5(CC)C=CCN6CC[C@]43[C@@H]65)C2)C1 [VCR, Vincristine] | 139.5 | 55.73 | 193.75 | 10.7 ± 0.992 µg/mL | 12.1 ± 0.349 µg/mL | 14.1 ± 1.95 µg/mL | 21.3 ± 1.21 µg/mL (≈ 25.9 µM) |  |
